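Following 48 hours of exposure in 96-well plates, responses at five concentrations were used to interpolate endpoints linearly. GI50 marks 50% less growth.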 Active and inactive are the calls of the source. Cut-off read from the data, not from the text of the source: active = GI50 up to about 1.1 µM and inactive = higher.
How the values were obtained:
Test in all cases: inhibition of tumour cell growth, NCI panel, 48 h
CCRF-CEM = tested on: CCRF-CEM
MDA-MB-231 = tested on: MDA-MB-231
COLO 205 = tested on: COLO 205
TK-10 = tested on: TK-10
HCT-15 = tested on: HCT-15
SNB-19 = tested on: SNB-19
A498 = tested on: A498
IGROV-1 = tested on: IGROV-1
NCI-H226 = tested on: NCI-H226
SK-MEL-28 = tested on: SK-MEL-28
OVCAR-3 = tested on: OVCAR-3
CAKI-1 = tested on: CAKI-1
HT-29 = tested on: HT-29
786-0 = tested on: 786-0
UO-31 = tested on: UO-31
T47D = tested on: T47D
BT-549 = tested on: BT-549
KM12 = tested on: KM12
NCI/ADR-RES = tested on: NCI/ADR-RES
MCF7 = tested on: MCF7
NCI-H23 = tested on: NCI-H23
K562 = tested on: K562
OVCAR-5 = tested on: OVCAR-5
HCT-116 = tested on: HCT-116
SK-OV-3 = tested on: SK-OV-3
SF-539 = tested on: SF-539
UACC-62 = tested on: UACC-62
ACHN = tested on: ACHN
M14 = tested on: M14
EKVX = tested on: EKVX
U-251 = tested on: U-251
PC-3 = tested on: PC-3
LOX IMVI = tested on: LOX IMVI
OVCAR-4 = tested on: OVCAR-4
MDA-MB-435 = tested on: MDA-MB-435
SR = tested on: SR
SK-MEL-5 = tested on: SK-MEL-5
SF-268 = tested on: SF-268
SNB-75 = tested on: SNB-75
SK-MEL-2 = tested on: SK-MEL-2
MOLT-4 = tested on: MOLT-4
HCC 2998 = tested on: HCC 2998
RPMI-8226 = tested on: RPMI-8226
SN12C = tested on: SN12C
UACC-257 = tested on: UACC-257
HOP-62 = tested on: HOP-62
HL-60 = tested on: HL-60
RXF 393 = tested on: RXF 393
NCI-H522 = tested on: NCI-H522
HOP-92 = tested on: HOP-92
OVCAR-8 = tested on: OVCAR-8
NCI-H460 = tested on: NCI-H460
DU-145 = tested on: DU-145
Hs-578T = tested on: Hs-578T
A549 = tested on: A549
SW-620 = tested on: SW-620
SF-295 = tested on: SF-295

Question: `CN(C)c1nc(N)nc(CCl)n1` was tested. Which GI50 (CCRF-CEM) did it give?
Answer: 17.4 µM (inactive)

Question: And the GI50 (MDA-MB-231)?
Answer: 27.9 µM (inactive)

Question: And the GI50 (COLO 205)?
Answer: 29.2 µM (inactive)

Question: What about the GI50 (TK-10) of the same compound?
Answer: 72.8 µM (inactive)

Question: What about the GI50 (HCT-15) of the same compound?
Answer: 29.4 µM

Question: And the GI50 (SNB-19)?
Answer: > 100 µM (inactive)

Question: What about the GI50 (A498) of the same compound?
Answer: 27.9 µM (inactive)

Question: What about the GI50 (IGROV-1) of the same compound?
Answer: 13.4 µM (inactive)

Question: What about the GI50 (NCI-H226) of the same compound?
Answer: 36.8 µM (inactive)

Question: And the GI50 (SK-MEL-28)?
Answer: 50.4 µM (inactive)

Question: And the GI50 (OVCAR-3)?
Answer: 17.5 µM (inactive)

Question: What about the GI50 (CAKI-1) of the same compound?
Answer: 5.14 µM (inactive)

Question: And the GI50 (HT-29)?
Answer: 41.1 µM (inactive)

Question: What about the GI50 (786-0) of the same compound?
Answer: 22.3 µM (inactive)

Question: What about the GI50 (UO-31) of the same compound?
Answer: 12.4 µM (inactive)

Question: And the GI50 (T47D)?
Answer: 60.4 µM (inactive)

Question: And the GI50 (BT-549)?
Answer: 40 µM (inactive)

Question: What about the GI50 (KM12) of the same compound?
Answer: 28.6 µM (inactive)

Question: And the GI50 (NCI/ADR-RES)?
Answer: 22 µM (inactive)

Question: And the GI50 (MCF7)?
Answer: 40.2 µM (inactive)

Question: What about the GI50 (NCI-H23) of the same compound?
Answer: 24.5 µM (inactive)

Question: What about the GI50 (K562) of the same compound?
Answer: 29 µM (inactive)

Question: What about the GI50 (OVCAR-5) of the same compound?
Answer: 65.9 µM (inactive)

Question: And the GI50 (HCT-116)?
Answer: 54.8 µM (inactive)

Question: And the GI50 (SK-OV-3)?
Answer: 56.2 µM (inactive)

Question: What about the GI50 (SF-539) of the same compound?
Answer: 26.1 µM (inactive)

Question: What about the GI50 (UACC-62) of the same compound?
Answer: 18.9 µM (inactive)

Question: What about the GI50 (ACHN) of the same compound?
Answer: 15.8 µM (inactive)

Question: What about the GI50 (M14) of the same compound?
Answer: 28.1 µM (inactive)

Question: And the GI50 (EKVX)?
Answer: 18.3 µM (inactive)

Question: What about the GI50 (U-251) of the same compound?
Answer: 35.2 µM (inactive)

Question: What about the GI50 (PC-3) of the same compound?
Answer: 74.8 µM (inactive)

Question: And the GI50 (LOX IMVI)?
Answer: 7.87 µM (inactive)

Question: What about the GI50 (OVCAR-4) of the same compound?
Answer: 19.6 µM (inactive)

Question: What about the GI50 (MDA-MB-435) of the same compound?
Answer: 37.1 µM (inactive)

Question: What about the GI50 (SR) of the same compound?
Answer: 24.9 µM (inactive)

Question: And the GI50 (SK-MEL-5)?
Answer: 29.5 µM (inactive)

Question: What about the GI50 (SF-268) of the same compound?
Answer: 27.2 µM (inactive)

Question: What about the GI50 (SNB-75) of the same compound?
Answer: 0.912 µM (active)

Question: What about the GI50 (SK-MEL-2) of the same compound?
Answer: > 100 µM (inactive)

Question: What about the GI50 (MOLT-4) of the same compound?
Answer: 18.8 µM (inactive)

Question: And the GI50 (HCC 2998)?
Answer: 45.6 µM (inactive)

Question: And the GI50 (RPMI-8226)?
Answer: 46 µM (inactive)

Question: And the GI50 (SN12C)?
Answer: 43.4 µM (inactive)

Question: And the GI50 (UACC-257)?
Answer: 87.7 µM (inactive)

Question: And the GI50 (HOP-62)?
Answer: 17.5 µM (inactive)

Question: And the GI50 (HL-60)?
Answer: 19.1 µM (inactive)

Question: And the GI50 (RXF 393)?
Answer: 26.5 µM (inactive)

Question: And the GI50 (NCI-H522)?
Answer: 10.9 µM (inactive)

Question: And the GI50 (HOP-92)?
Answer: 20.7 µM (inactive)

Question: And the GI50 (OVCAR-8)?
Answer: 35.5 µM (inactive)

Question: What about the GI50 (NCI-H460) of the same compound?
Answer: 32.7 µM (inactive)

Question: And the GI50 (DU-145)?
Answer: 99.5 µM (inactive)

Question: What about the GI50 (Hs-578T) of the same compound?
Answer: 25.4 µM (inactive)

Question: What about the GI50 (A549) of the same compound?
Answer: 78.9 µM (inactive)

Question: What about the GI50 (SW-620) of the same compound?
Answer: 28.3 µM (inactive)

Question: What about the GI50 (SF-295) of the same compound?
Answer: 30.8 µM (inactive)
